Reference: US12404243B2, “Inhibitors of the Wnt/beta-catenin pathway” (The Regents of the University of California, priority 2018, dated 2025)

Tests used:
SW480 tumor xenografts = assay: Mouse xenografts of SW480 cells; type: in vivo, nude mice
Protocol: 5×10^5 of SW480 cells were injected subcutaneously into the flank area of 6-8-week-old nude mice. Tumor volume was measured by using an electronic caliper and calculated with the formula length×width^2×0.5, every 2 days. 12 days after inoculation, tumor bearing mice were administered Wnt inhibitors (dissolved in 10% DMSO+20% Cremophor EL+70% normal saline) via intraperitoneal injection for 5 days per week for 10 days at 10 mg/kg. Animal body weights were measured before drug treatments and at the end of the experiments. At the end of the experiments, animals were euthanized with carbon dioxide, followed by cervical dislocation. The tumors were dissected and weighed on the digital balance. We housed mice in pathogen-free facilities under 12-h light and 12-h dark cycle. The animal protocol and experimental procedures were approved by the Division of Laboratory Animal Medicine of UCLA and were in accordance with the US National Institute of Health guidelines.

[1] = system: Wnt/β-catenin-mediated transcription; assay: TCF-luciferase activity assay in 293T/Top/β-cat* cells; type: cell-based; details: summary of FIGS. 5A, B (293T/Top cells + LiCl) and 6A-C (293T/Top/β-cat* cells)
Protocol: 293T cells were maintained in DMEM medium containing 10% FBS and antibiotics (penicillin and streptomycin) at 37° C. in 5% CO2. Cells were stably infected with lentiviruses expressing the TopFlash reporter (293T/Top cells). The β-catenin mutant (β-cat*, the constitutively active mutant) construct was prepared using the retroviral expression vector by standard PCR. For viral transduction, retrovirus was obtained by co-trasfection of pQCXIP-β-cat* with packaging plasmids into 293T cells following the manufacturer's instructions. 293T/Top stable cells were seeded in 10 cm dish and incubated overnight. The next day cells were treated with retroviral particles. After 12 hours, the medium was replaced with fresh medium. 2 days post virus infection, the cells were selected with puromycin for 5 days to generate the 293T/Top/β-cat* stable cell line.
293 T/Top/β-cat* cells were plated at 40%-50% confluences in 12-well plate for 8 hours and then treated with Wnt inhibitors overnight. The luciferase activity of total cell lysates was measured using Luciferase Assay System (Promega). The related TCF-luciferase activity was normalized against the protein concentration of each cell lysate sample.

[2] = SW480 xenografts, 10 mg/kg, day 12 to 22 (FIG. 16A)

Which results are given for `CN(C)CCOc1ccc(NC(=O)C2C/C(=C\c3cc(Cl)cc(Cl)c3)C(=O)/C(=C/c3cc(Cl)cc(Cl)c3)C2)cc1` (stereo not shown) [JC138, 3,5-Bis((E)-3,5-dichlorobenzylidene)-N-(4-(2-(dimethylamino)ethoxy)phenyl)-4-oxocyclohexane-1-carboxamide]?
actual tumor sizes at the end of treatment (SW480 tumor xenografts; [2]): reduced the size of tumors recovered; tumor weights at the end of treatment (SW480 tumor xenografts; SW480 xenografts, 10 mg/kg, day 12 to 22 (FIG. 16B)): significantly reduced the weight of tumors recovered; tumor volumes (SW480 tumor xenografts; SW480 xenografts, 10 mg/kg, day 12 to 22 (FIG. 16C)): significantly reduced tumor volumes

What does the source list for `O=C1/C(=C/c2ccc(F)c(F)c2)CN(C(=O)c2ccc(OCCN3CCCCC3)cc2)C/C1=C\c1ccc(F)c(F)c1` [JC082, 3,5-Bis((E)-3,4-difluorobenzylidene)-1-(4-(2-(piperidin-1-yl)ethoxy)benzoyl)piperidin-4-one]?
tumor volume (SW480 tumor xenografts; SW480 xenografts, 10 mg/kg, day 12 to day 21 (FIG. 9A)): significantly reduce tumor volume; tumor sizes at the end of treatment (SW480 tumor xenografts; SW480 xenografts, 10 mg/kg, day 12 to day 21 (FIG. 9B)): significantly reduced the size of the tumors recovered; tumor weights at the end of treatment (SW480 tumor xenografts; SW480 xenografts, 10 mg/kg, day 12 to day 21 (FIG. 9C)): significantly reduce the weight of tumors recovered; tumor growth (SW480 tumor xenografts; mouse xenograft studies of human colon cancer, summary of FIGS. 7A-D, 8A-C, 9A-C): significantly inhibited the tumor growth

With `CN(C)CCC(=O)N1C/C(=C\c2ccc(Cl)c(Cl)c2)C(=O)/C(=C/c2ccc(Cl)c(Cl)c2)C1` [JC032, 3,5-Bis((E)-3,4-dichlorobenzylidene)-1-(3-(dimethylamino)propanoyl)piperidin-4-one] as the compound, how does the Wnt/β-catenin-mediated transcription [1] read?
Its Wnt/β-catenin-mediated transcription is “significantly inhibited”.

With `CN(C)CCC(=O)N1C/C(=C\c2cccc(C(F)(F)F)c2)C(=O)/C(=C/c2cccc(C(F)(F)F)c2)C1` [JC018, 1-(3-(Dimethylamino)propanoyl)-3,5-bis((E)-3-(trifluoromethyl)benzylidene)piperidin-4-one] as the compound, how does the Wnt/β-catenin-mediated transcription [1] read?
The Wnt/β-catenin-mediated transcription was “significantly inhibited”.

`CN(C)CCNC(=O)C1C/C(=C\c2cc(Cl)cc(Cl)c2)C(=O)/C(=C/c2cc(Cl)cc(Cl)c2)C1` (stereo not shown) [JC137, 3,5-Bis((E)-3,5-dichlorobenzylidene)-N-(2-(dimethylamino)ethyl)-4-oxocyclohexane-1-carboxamide] was tested. Which “actual tumor sizes at the end of treatment” value (SW480 tumor xenografts; [2]) did it give?
The value was “reduced the size of tumors recovered”.

For `O=C1/C(=C/c2ccc(F)c(F)c2)CN(C(=O)CCC(=O)N2CCCC2)C/C1=C\c1ccc(F)c(F)c1` [JC072, 1-(3,5-Bis((E)-3,4-difluorobenzylidene)-4-oxopiperidin-1-yl)-4-(pyrrolidin-1-yl)butane-1,4-dione], which Wnt/β-catenin-mediated transcription [1] is on record?
Its Wnt/β-catenin-mediated transcription is “significantly inhibited”.

`CN(C)CCC(=O)N1C/C(=C\c2cc(Cl)cc(Cl)c2)C(=O)/C(=C/c2cc(Cl)cc(Cl)c2)C1` [JC028, 3,5-Bis((E)-3,5-dichlorobenzylidene)-1-(3-(dimethylamino)propanoyl)piperidin-4-one] was tested. Which Wnt/β-catenin-mediated transcription [1] did it give?
The Wnt/β-catenin-mediated transcription was “significantly inhibited”.

How did the “actual tumor sizes at the end of treatment” value (SW480 tumor xenografts; SW480 xenografts, 10 mg/kg, day 12 to day 20 (FIG. 8B)) turn out when `CCN(CC)CCS(=O)(=O)N1C/C(=C\c2ccc(F)c(F)c2)C(=O)/C(=C/c2ccc(F)c(F)c2)C1` [JC098, 1-((2-(Diethylamino)ethyl)sulfonyl)-3,5-bis((E)-3,4-difluorobenzylidene)piperidin-4-one] was run?
Its value is “reduced the size of tumors recovered”.

How did the Wnt/β-catenin-mediated transcription [1] turn out when `O=C1/C(=C/c2ccc(F)c(F)c2)CN(C(=O)CCN2CCCCC2)C/C1=C\c1ccc(F)c(F)c1` [JC048, 3,5-Bis((E)-3,4-difluorobenzylidene)-1-(3-(piperidin-1-yl)propanoyl)piperidin-4-one] was run?
The Wnt/β-catenin-mediated transcription was “significantly inhibited”.

Which Wnt/β-catenin-mediated transcription [1] does the source give for `CN(C)CCC(=O)N1C/C(=C\c2ccc(C(F)(F)F)cc2)C(=O)/C(=C/c2ccc(C(F)(F)F)cc2)C1` [JC022, 1-(3-(Dimethylamino)propanoyl)-3,5-bis((E)-4-(trifluoromethyl)benzylidene)piperidin-4-one] here?
The Wnt/β-catenin-mediated transcription was “significantly inhibited”.

`CN(C)CCC(=O)N1C/C(=C\c2ccccn2)C(=O)/C(=C/c2ccccn2)C1` [JC021, (3E,5E)-1-(3-(Dimethylamino)propanoyl)-3,5-bis(pyridin-2-ylmethylene)piperidin-4-one] was tested. Which Wnt/β-catenin-mediated transcription [1] did it give?
Its Wnt/β-catenin-mediated transcription is “significantly inhibited”.
